Experimental data taken from US5436243A, “Aminoanthraquinone derivatives to combat multidrug resistance” (priority 1993, dated 1995).
Entries after “also recorded” stand apart in the source; their conditions may differ.

Key:
[1] = test system: P-glycoprotein; assay: Phosphorylation of P-glycoprotein in intact MCF7 Adr 10 cells; assay type: cell-based, human; conditions: MCF7 Adr 10, representative time course experiment, FIG. 12
Excerpt: (§1) The effects of compound 1c on phosphorylation of the P-glycoprotein and the MARCKS protein (myristoylated alanine-rich C kinase substrate) was studied in intact cells labeled with [^32 P] orthophosphate. The MARCKS protein (also known as the 80 to 87 kD protein) is observed to be rapidly phosphorylated subsequent to PKC activation by phorbol esters, cell permeant diacylglycerols, growth factor and hormonal stimulation in a variety of cell types from several species. […] In these experiments, phosphorylation of MARCKS was used as a marker of cellular PKC activity. The effects of 1c on phosphorylation states of the P-glycoprotein and MARCKS protein were studied to test the possibility that this compound may be inhibiting PKC in cells; due to metabolism to an active PKC inhibitor or by achieving inhibitory concentrations in the microenvironment of the P-glycoprotein.
(§2) METHOD: A monoclonal antibody to the P-glycoprotein, C219, was used to immunoprecipitate the P-glycoprotein and a polyclonal rabbit antibody was used to immunoprecipitate the MARCKS protein from extracts of cells labeled with [^32 P]. MARCKS was immunoprecipitated after preclearing the aliquot with normal rabbit IgG. MCF7 Adr 10 cells were labeled with [^32 P] orthophosphate for two hours. […] P-glycoprotein and MARCKS were immunoprecipitated from aliquots of the same sample containing equivalent radioactivity.

[2] = test system: MCF7 Adr 10; assay: 72 hour MTT proliferation assay, reversal of drug resistance in MCF7 Adr 10; assay type: cell-based, human
Experimental: In 72 hour MTT proliferation assays using the following method, compounds 1b, 1c and 1d were assessed for inhibition of Vinca alkaloid and anthracycline drug resistance in MDR MCF7. Additionally, compounds 1b and 1c were assessed for potentiation of sensitivity to Vinca alkaloid and anthracycline drugs in the parental MCF7 WT cell line.
METHOD: 5000 cells per well were plated in 100 μl of IMDM containing 10% FCS and allowed to adhere overnight. The following day the cells were treated with N-substituted 1,4-diaminoanthraquinones and exposed to graded concentrations of antineoplastic agents. 50 μl of IMDM 10% FCS containing either vehicle or N-substituted 1,4-diaminoanthraquinones at 3 times the final tested concentration was added to cells at timed intervals. The plates were incubated for 2 hours at 37° C. to allow maximal cellular accumulation of N-substituted 1,4-diaminoanthraquinones. 40 μl aliquots of IMDM 10% FCS containing either vehicle or graded concentrations of antineoplastic drugs at 5 times the final concentration were added to treatment groups. Following this addition, 10 μl of IMDM 10% FCS containing either vehicle or N-substituted 1,4-diaminoanthraquinone at 5 times the final concentration was added to each group of wells. The cells were incubated for 72 hours after treatment. At this time the viable cells in each treatment group were estimated in a colorimetric assay by adding MTT and incubating the cells at 37° C. for 3-4 hours. The media in each well was aspirated and MTT formazan was solubilized in isopropyl alcohol acidified with 0.1 N HCl. The absorbance of the solubilized formazan was quantitated using a plate reader spectrophotometer. […] The concentrations of antineoplastic drugs which inhibited proliferation by 50% (IC50's) were estimated by calculating a percentage from the ratio: antineoplastic drug treated groups/control group absorbance and plotting the dose response curve on semilog paper. The IC50 was estimated from this curve. To assess the effects of inhibition of resistance by N-substituted 1,4-diaminoanthraquinones, the percentages were calculated relative to cell groups treated with resistance modifier alone and IC50's calculated as above. A reversal factor was calculated by dividing the IC50 to the antineoplastic drug alone (Control group) by the IC50 to antineoplastic drug in cells treated with resistance modifier.

[3] = test system: MARCKS protein; assay: Phosphorylation of MARCKS in intact MCF7 Adr 10 cells; assay type: cell-based, human; conditions: MCF7 Adr 10, representative time course experiment, FIG. 12
Excerpt: as §1, §2

[4] = test system: other phosphoproteins; assay: Overall phosphoprotein changes in cell extracts; assay type: cell-based
Excerpt: One possible explanation for stimulation of phosphorylation of P-glycoprotein and MARCKS is that 1c may activate PKC or other cellular kinases by signal transduction pathways that have not yet been identified to phosphorylate these proteins. An alternative explanation for stimulation of phosphorylation of P-glycoprotein and MARCKS is that 1c inhibits protein phosphatases.

[5] = target: P-glycoprotein in MCF7 Adr 10 membrane vesicles (Homo sapiens, UniProt P08183)
[6] = test system: MCF7 Adr 10; assay: Tumor cell clonogenic assay, MCF7 ADR 10; assay type: cell-based, human
Experimental: The tumor cell clonogenic assays measure clonal proliferation of tumor cells. In this assay, 300-500 cells are plated in 10 cm^2 wells, allowed to adhere overnight, and are treated the following day. Tumor cell colonies were counted after 10-12 days of culture. The times of exposure in these experiments are similar; however, the concentrations of FCS are 20% in the CFU-GM assay and 10% in the tumor cell clonogenic assays. The IC50's are calculated as described above for the MTT proliferation assays.

[7] = test system: serine threonine kinases; assay: In vitro assays of serine threonine kinases; assay type: biochemical
[8] = test system: PKC; assay: Micellar PKC screening assay; assay type: biochemical
Excerpt: The N-substituted diaminoanthraquinone, 1b, (1,4-bis-[[3'-(diethylamino)propyl]amino]anthraquinone), was identified as a PKC inhibitor in the micellar PKC screening assay and in platelets. […] Spectrophotometric analysis of 1b and lc indicated they were excellent chromophores with absorbance maxima at 648 and 600 nm in chloroform, respectively, and extinction coefficients of approximately 20,000. At these wavelengths, there was minimal absorbance by cellular components contained in the chloroform phase. These properties of 1b and 1c were utilized to determine the time course of accumulation of these compounds in MDR MCF7 Adr 10 cells.
The activities of 1a, 1b, 1c and 1d and mitoxantrone, an anthraquinone antineoplastic drug, were evaluated in vinblastine drug accumulation assays performed by the following method. […] Mitoxantrone was identified as a PKC inhibitor in miceliar PKC assays. Compound 1d (1,4-bis-[[2-(4-morpholino)ethyl]amino]anthraquinone) was only evaluated in cellular studies.

[9] = test system: MCF7 WT; assay: Tumor cell clonogenic assay, MCF7 WT; assay type: cell-based, human
Experimental: The tumor cell clonogenic assays measure clonal proliferation of tumor cells. In this assay, 300-500 cells are plated in 10 cm^2 wells, allowed to adhere overnight, and are treated the following day. Tumor cell colonies were counted after 10-12 days of culture. […] The IC50's are calculated as described above for the MTT proliferation assays.

Sequence of P-glycoprotein in MCF7 Adr 10 membrane vesicles (P08183 whole entry): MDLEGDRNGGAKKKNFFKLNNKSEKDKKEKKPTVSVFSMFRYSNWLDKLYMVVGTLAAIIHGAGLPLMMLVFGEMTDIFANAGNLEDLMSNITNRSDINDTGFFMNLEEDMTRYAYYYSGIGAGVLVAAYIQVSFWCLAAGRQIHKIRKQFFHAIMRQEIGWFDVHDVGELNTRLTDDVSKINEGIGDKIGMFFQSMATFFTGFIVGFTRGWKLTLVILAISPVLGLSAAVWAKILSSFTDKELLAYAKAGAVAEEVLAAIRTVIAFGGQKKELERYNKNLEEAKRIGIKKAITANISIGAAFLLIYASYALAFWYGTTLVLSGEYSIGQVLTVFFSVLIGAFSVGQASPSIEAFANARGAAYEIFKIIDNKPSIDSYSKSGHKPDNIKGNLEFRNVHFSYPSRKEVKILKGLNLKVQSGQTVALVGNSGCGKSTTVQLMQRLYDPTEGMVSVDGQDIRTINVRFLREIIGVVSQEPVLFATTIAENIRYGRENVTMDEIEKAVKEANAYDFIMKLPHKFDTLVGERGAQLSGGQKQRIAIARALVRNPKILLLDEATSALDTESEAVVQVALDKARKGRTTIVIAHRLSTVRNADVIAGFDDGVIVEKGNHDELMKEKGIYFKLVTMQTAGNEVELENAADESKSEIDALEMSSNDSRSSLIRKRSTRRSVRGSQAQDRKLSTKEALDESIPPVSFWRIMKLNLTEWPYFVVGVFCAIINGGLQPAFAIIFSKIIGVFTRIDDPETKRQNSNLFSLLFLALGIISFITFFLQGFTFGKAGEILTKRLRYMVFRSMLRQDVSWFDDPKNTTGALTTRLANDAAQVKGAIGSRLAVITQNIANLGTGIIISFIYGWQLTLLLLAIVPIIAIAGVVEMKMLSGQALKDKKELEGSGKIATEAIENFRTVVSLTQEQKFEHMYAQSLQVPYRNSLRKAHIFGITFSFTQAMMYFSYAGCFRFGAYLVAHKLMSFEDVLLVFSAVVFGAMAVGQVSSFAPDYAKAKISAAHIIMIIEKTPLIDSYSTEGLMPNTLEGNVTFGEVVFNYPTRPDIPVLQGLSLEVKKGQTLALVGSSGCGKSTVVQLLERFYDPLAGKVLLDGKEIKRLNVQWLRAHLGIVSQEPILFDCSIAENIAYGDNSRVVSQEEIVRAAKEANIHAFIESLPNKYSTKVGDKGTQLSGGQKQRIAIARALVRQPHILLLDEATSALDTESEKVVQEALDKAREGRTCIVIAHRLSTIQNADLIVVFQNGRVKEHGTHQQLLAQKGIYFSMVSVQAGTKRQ

O=C1c2ccccc2C(=O)c2c(NCCCN3CCOCC3)ccc(NCCCN3CCOCC3)c21 [Compound 1c, 1,4-bis-[[3'(4-morpholino)propyl]amino]anthraquinone]
increase of P-glycoprotein phosphorylation [1]: 6.6 fold | inhibition of Vinca alkaloid drug resistance [2]: inhibit Vinca alkaloid drug resistance at nanomolar concentrations | inhibition of drug resistance / MDR phenotype ([2]; MCF7 Adr 10): most potent inhibitor of the MDR phenotype in the MCF7 Adr 10 cell line; also recorded: more potent MDR phenotype inhibitor than 1d | Reversal Factor (VCR) ([2]; [1c] 0.1 μM): 2.3 | Reversal Factor (VLB) ([2]; [1c] 0.1 μM): 2.2 | Reversal Factor (VCR) ([2]; [1c] 0.25 μM): 5.0 | Reversal Factor (VLB) ([2]; [1c] 0.25 μM): 3.5 | Reversal Factor (ADR) ([2]; [1c] 0.5 μM): 2.0 | Reversal Factor (DNR) ([2]; [1c] 0.5 μM): 1.9 | Reversal Factor (VCR) ([2]; [1c] 0.5 μM): 10.4 | Reversal Factor (VLB) ([2]; [1c] 0.5 μM): 8.5 | Reversal Factor (ADR) ([2]; [1c] 1.0 μM): 3.3 | Reversal Factor (DNR) ([2]; [1c] 1.0 μM): 3.2 | Reversal Factor (VCR) ([2]; [1c] 1.0 μM): 24.8 | Reversal Factor (VLB) ([2]; [1c] 1.0 μM): 9.2 | average cell growth in the presence of 1c alone, of the vehicle control ([2]; test concentrations, n=14, 4320 min): greater than 86% | increase of MARCKS phosphorylation [3]: 3 fold | phosphorylation of other phosphoproteins [4]: did not significantly alter phosphorylation of other phosphoproteins | effect on non-specific binding of [3H] VLB [5]: no effect | IC50 ([6]; Homo sapiens, NCI/ADR-RES, tumor cell clonogenic assay, 10-12 days, read-out: Continuous Exposure IC50, MCF7 ADR 10): 400 nM | antiproliferative effect relative to human CFU-GM ([6]; MDR cancer cells, clonal proliferation assays): ~20 times | relative sensitivity of MCF7 WT and MDR MCF7 to cytotoxicity ([6]; clonogenic assays): MDR MCF7 are twice as sensitive to 1c cytotoxicity as MCF7 WT | activity in in vitro assays of serine threonine kinases [7]: does not show significant activity | PKC activity in micellar PKC screening assay [8]: marginal PKC inhibitory activity | IC50 ([9]; Homo sapiens, MCF7, tumor cell clonogenic assay, 10-12 days, read-out: Continuous Exposure IC50, MCF7 WT): 800 nM | antiproliferative effect relative to human CFU-GM ([9]; sensitive cancer cells, clonal proliferation assays): approximately 10 times
